Experimental data from patent publication US12171813B2, “Methods of and compositions for reducing gene expression and/or activity” (Christiana Care Gene Editing Institute, Inc., priority 2021, dated 2024).

System: NFE2L2 gene
Test: Screening of SureKill guide RNAs in the NFE2L2 gene for ability to induce indels
Format: cell-based, Human
Settings: transfections of individual guide RNAs (spCas9 RNP); NCI-H1703 clone 44-25 cells; DECODR
Procedure: Human lung squamous cell carcinoma NCI-H1703 clone 44-25 cells were derived from NCI-H1703 cells (#CRL-5889) which were purchased from ATCC (Manassas, VA, USA). NCI-H1703 clone 44-25 cells contains R34G mutation (C 4 G) in NFE2L2 gene. H1703 clone 44-25 cells were cultured in ATCC formulation RPMI-1640 with 10% FBS. T75 flasks were used and cells were split 1:5 upon reaching 90% confluency. Human lung adenocarcinoma cells (Dist. Lot. No. LG0703-F948-PDC) were acquired from the National Institute of Health's National Cancer Institute's Patient-Derived Models Repository (PDMR). This PDMR cell line contains the L858R mutation (T 4 G) in the EGFR gene. The PDMR cells were maintained in Advanced DMEM/F12 media containing 10% FBS, 0.4 μg/mL hydrocortisone, 0.01 μg/mL EGF Recombinant Human Protein, 24 μg/mL adenine, and 2 mM L-Glutamine. T75s were used and cells were split 1:3 upon reaching 90% confluency. All cultures were maintained in cell culture incubators at 37° C. and 5% CO2.
Ribonucleoproteins (RNP) are complexed by incubating 250 pmol of purified synthetic gRNA (Synthego Corporation, Redwood City, CA) with 50 pmol of purified spCas9 (Synthego Corporation, Redwood City, CA) at room temperature in nuclease-free 1× TE buffer for 15 minutes.
Transfections were carried out using the Lonza Nuclefector 4d. Cultures in t75s at 90% confluence were split 1:2 24 hours prior to transfection. RNPs were complexed at 250:50 pmol for 30 minutes prior to transfection, during which time cells were harvested and counted. All reactions were 100 μL and contained 1 e6 cells. Lonza SF solution and Nucleofector program CM-130 were used in all transfections of the H1703 cell line. Lonza SE solution and Nucleofector program CA-137 were used in all transfections of the PDMR. After transfection, 500 μL of media that had been equilibrated to cell culture CO2 and temperature conditions was added to each 100 μL cuvettes. Cuvettes were then placed in the incubator. After 20 minutes, the entire content of each cuvette was seeded into 3 mL of media in a 6 well plate. After 72 hours, samples were dissociated using 200 μL Trypsin 0.25% for 5 minutes. 800 μL culture media was used to quench and split into 1.5 mL tubes each containing 500 μL of the sample. Tubes were spun at 300×g for 5 minutes. One of the tubes was placed in the −20° C. freezer and the other was resuspended in 500 μL of Trizol for RNA extraction and cDNA synthesis.
All sequencing was performed on the Applied Biosystems SeqStudio. The BigDye Terminator v3.1 Cycle Sequencing Kit was used to prepare samples for sequencing. Resulting sequences were analyzed with DECODR to determine indel rates (Bloh et al., CRISPR J. 4:120-31 (2021)).
In some cancers, human NRF2 contains a mutation, R34G, that creates a novel PAM site making it a targetable sequence by CRISPR. By combining the R34G-targeting CRISPR with another CRISPR of high efficiency in a downstream intronic region, exon skipping can be induced, resulting in a higher efficiency of functional knockout than the R34G targeting CRISPR alone. To find a suitable SureKill guide RNA (gRNA) to pair with the R34G targeting CRISPR, we selected the intron between exons 3 and 4 (FIG. 2). A series of gRNAs were created in this region and screened for their ability to induce indels, a measure of their activity (Table 2).
In Table 2, all sequences are listed from 5′ to 3′. Indel %, a measure of CRISPR activity, is based on transfections of individual guide RNAs. All guide RNAs, with the exception of R34G, were designed in the intron between exons 3 and 4.

Question: With “R34G gRNA: guide RNA GATATAGATCTTGGAGTAAG, SEQ ID NO:1, targets NRF2 R34G mutation (listed as DNA, chemistry not given here)” as the substance, how does the indel % read?
Answer: The indel % was 83%.
